Patent US12616649B2, “Composition containing plant extracts” (LG HOUSEHOLD & HEALTH CARE LTD., priority 2020, dated 2026)

Columns and labels:
[1] = system: B-16 mouse melanoma cells; assay: Effect of reducing total amount of melanin (whitening); assay type: cell-based; conditions: control group
Method: After a sample was added to the culture medium of B-16 mouse melanoma cells, a whitening effect was confirmed by measuring the total amount of melanin at the cellular level (Lotan R., Lotan D. Cancer Res. 40:3345-3350, 1980). Before the experiment, toxicity evaluation was performed on mouse melanoma cells to select a concentration without toxicity, and then whitening evaluation was performed at the concentration.
As a control, arbutin was added to the culture medium at a concentration of 200 ppm. B-16 melanoma cells treated with the sample or arbutin were cultured for 3 days.
Thereafter, the cells were removed from a culture vessel and centrifuged, 1 ml of sodium hydroxide solution (1N concentration) was added to the centrifuged cell pellet, heating was performed at 80° C. for 10 minutes to dissolve melanin, and using a spectrophotometer, absorbance at 400 nm was measured to measure the amount of melanin produced.
The amount of melanin was determined according to absorbance per unit cell number (1×10^6 cells). In addition, based on a non-addition control group, the relative total amount of melanin in the experimental group treated with each sample was calculated as inhibition rate (%), and the results are summarized in the table below.

[2] = system: RAW264.7 cells; assay: NO generation inhibitory effect (GRIESS method, LPS stimulus); assay type: cell-based, mouse
Method: To check the anti-inflammatory effect and skin trouble alleviation effect of each sample, an experiment was conducted to evaluate inhibition of nitric oxide (NO) formation by the GRIESS method using the RAW264.7 cell line (ATCC number: CRL-2278).
Specifically, RAW264.7 cells, which are macrophages of mice, were subcultured several times, and the cells were seeded at a cell density of 3×10^5 cells per well in a 24-well plate, followed by cell culture for 24 hours. At this time, as a positive control, the cells were treated with L-NG-monomethylarginine (L-NMMA), a NO-production inhibitor, to a final concentration of 5 ppm and cultured for 30 minutes. Then, the cells were treated with lipopolysaccharide (LPS) as a stimulus at a concentration of 1 μg/ml and cultured for 24 hours. 100 μl of the supernatant was transferred to a 96-well plate, 100 μl of a GRIESS solution was added thereto, and then reaction was performed at room temperature for 10 minutes. Then, absorbance at 540 nm was measured, and the NO inhibitory effect of each sample was determined based on the absorbance, and the results are shown in the table below.

[3] = Antioxidant effect, free radical scavenging (DPPH); assay type: physicochemical; conditions: control group
Method: To confirm antioxidant activity, free radical scavenging activity was measured using DPPH. DPPH was purchased from Sigma Co., Ltd. (USA). First, a standard DPPH ethanol solution with a concentration of […] (0.06 mg/ml) was prepared. Then, ethanol was added to each extract and ascorbic acid as a reference material, which is known as an antioxidant, to prepare samples at a concentration of 0.1%, and serial dilution was performed. Then, the sample and the standard DPPH solution were added in the same ratio and stirred, followed by reaction at 37° C. for 30 minutes. Then, absorbance was measured at 517 nm. At this time, addition of ethanol instead of the sample was used as a control. Free radical scavenging ability was measured by calculating IC50, which is half maximal inhibitory concentration, and the results are shown in the following table. IC50 is a general method of expressing free radical scavenging ability as the concentration of ascorbic acid and extract required to remove 50% of free radicals of a non-addition control group.

[4] = system: human dermal fibroblasts; assay: Hyaluronic acid synthesis enhancement (Hyaluronan ELISA); assay type: cell-based; conditions: 10 ppb
Method: Human-derived fibroblasts (human dermal fibroblasts) cultured in a DMEM culture medium containing 10% fetal bovine serum at a cell density of 1×10^5 cells/mL, and 500 μl of the cell culture medium was added to each well of a 24-well plate. After incubation for 18 hours, the samples were diluted with a DMEM culture medium without fetal bovine serum, and each sample was added at the following concentrations. […] After incubation for 24 hours, the cell culture medium was recovered, and the concentration of hyaluronic acid was measured using a Hyaluronan ELISA kit (R&D Systems).

[5] = system: P. aeruginosa; assay: MIC of the hexanediol control, bacteria as named in the tables; assay type: cell-based; conditions: control group
[6] = system: Aspergillus niger; assay: Antibacterial effect, MIC, fungi (serial dilution); assay type: cell-based
Method: MICs were measured for fermented cultures of Staphylococcus aureus and Aspergillus niger.
The serial dilution method was used for both bacteria, and the MIC of fermentation culture was confirmed by visually comparing the turbidity between wells after the incubation was completed.
The minimum inhibitory concentration of each extract was expressed as % (w/v), and MIC (%) in each table means % (w/v) unless otherwise stated.

[7] = system: human-derived fibroblasts; assay: Promotion of type I collagen synthesis (PICP EIA kit); assay type: cell-based; conditions: 10 ppb
Method: Each sample was added to the culture medium of human-derived fibroblasts to confirm the effect of promoting synthesis of type I collagen at the cellular level. Measurement of synthesized collagen was quantified using a Procollagen Type I C-Peptide Enzyme Immuno Assay KIT (PICP ETA kit). To measure the amount of synthesized collagen, each sample was added to a fibroblast culture medium (DMEM culture medium). After cell culture for 48 hours, the culture medium was taken, and the degree of synthesis of type I collagen at each concentration was measured at 450 nm using a spectrophotometer using the PICP ETA kit.
For comparison of the effects, a collagen synthesis level was measured in the same manner for the culture medium of untreated fibroblasts (negative control) and a sample (positive control) to which TGFb was added to a final concentration of 10 ppb. A collagen production increase rate was calculated as the ratio of relative collagen production to the negative control group, and the results are shown in the table below.

In the case of `OC[C@H]1O[C@@H](Oc2ccc(O)cc2)[C@H](O)[C@@H](O)[C@@H]1O` [Aibutin], the “Whitening Melanin content (%)” value ([1]; Arbutin 200 ppm) is reported as 35%.

For `OC[C@H]1O[C@@H](Oc2ccc(O)cc2)[C@H](O)[C@@H](O)[C@@H]1O` [Arbutin, arbutin], the “Whitening Melanin content (%)” value ([1]; 200 ppm) was 35%.

For `CNC(=N)NCCC[C@H](N)C(=O)O` [L-NMMA, L-NG-monomethylarginine], the “Anti-inflammation Inhibition of NO production (%)” value ([2]; control group, 5 ppm) was 28%, the “Anti-inflammation Inhibition of NO production (%)” value ([2]; control group, L-NMMA 5 ppm) was “L-NMMA (5 ppm) 28%” and the “Anti-inflammation Inhibition of NO production (%)” value ([2]; positive control, 5 ppm) was 28%.

With `O=C1O[C@H]([C@@H](O)CO)C(O)=C1O` [Vitamin C, ascorbic acid] the “Anti-oxidation IC50” value [3] was 7.5 ppm and the “Anti-oxidation IC50” value ([3]; DPPH) was 7.5 ppm.

In the case of “EGF: epidermal growth factor, known to promote hyaluronic acid production”, the “Moisturizing HA synthesis (%)” value ([4]; control group) is reported as 320% and the “Moisturizing HA synthesis (%)” value ([4]; positive control) is reported as 320%.

In the case of Hexanediol, the “Anti-bacteria MIC (%) Bacteria: P. aeruginosa” value [5] is reported as “Bacteria: P. aeruginosa 2%”, the “Anti-bacteria MIC (%) Bacteria: P. aeruginosa” value ([5]; P. aeruginosa) is reported as “Bacteria: P. aeruginosa 2%” and the “Anti-bacteria MIC (%) Bacteria: P. aeruginosa” value ([5]; Bacteria: P. aeruginosa) is reported as “Bacteria: P. aeruginosa 2%”. The “Anti-bacteria MIC Bacteria: P. aeruginosa” value ([5]; Bacteria: P. aeruginosa) was “Bacteria: P. aeruginosa 2%”, the “Anti-bacteria MIC (%) Fungi” value ([6]; % (w/v), A. niger, 30° C., 48 hours) was “Fungi: A. niger 1%” and the “Anti-bacteria MIC (%) Fungi” value ([6]; Fungi) was “Fungi: A. niger 1%”. For the same molecule, the “Anti-bacteria MIC (%) Fungi” value ([6]; Fungi (A. niger)) was “Fungi: A. niger 1%”, the “Anti-bacteria MIC (%) Fungi” value ([6]; Fungi (A.niger)) was “Fungi: A.niger 1%” and the “Anti-bacteria MIC (%) Fungi” value ([6]; Fungi (control line: A. niger)) was “Fungi: A. niger 1%”. For the same molecule, the “Anti-bacteria MIC (%) Fungi: A. niger” value ([6]; control group, A. niger) was “Fungi: A. niger 1%”.

With “TGFb: positive control for collagen synthesis, 10 ppb” the “Anti-wrinkle Collagen synthesis (% of control)” value ([7]; control group) was 25% and the “Anti-wrinkle Collagen synthesis (% of control)” value ([7]; positive control) was 25%.
